Usually IC50 stands for the concentration needed to halve the response being measured. What is called Papp A→B is the apparent permeability from the apical to the basolateral side of a cell layer.

For one data set, the target named is T1, αvβ1 (UniProt G3HZ55+P06756).
T1 construct: expressed in transfected cells; host or cells: CHO cells deficient in α5 gene, transfected with αv gene
Nature of the data set: αvβ1 cell adhesion inhibition test (αv-transfected CHO cells on human fibronectin). It is filed as cell-based. The settings on record: human fibronectin coating, 1 mM MnCl2, 1 hour, read-out: IC50 (rate of inhibition of cell adhesion, αvβ1). An outline of the steps: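 α5-deficient CHO cells expressing αv, at 1×10^6 cells/mL in DMEM with 1 mM MnCl2 plus test compound, allowed to adhere 1 h at 37° C to human fibronectin (coated at 1.25 μg/mL). Adherent cells read by crystal violet absorbance, normalized to uncoated (100%) and DMSO (0%) wells. IC50 reported as banded classes.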

A short description of data set [1]: Transcellular transport test using Caco2 cell. Format: in vitro ADME. The settings on record: human, Caco-2; Caco2 monolayer, A-to-B, 10 μM compound, pH 7.4, 90 minutes. An outline of the steps:
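Caco2 monolayers grown 20 to 22 days on 0.4 μm polycarbonate inserts; 10 μM compound (0.1% DMSO) added apically in HBSS/20 mM HEPES pH 7.4, 90 min at 37° C. Basolateral compound quantified by LC-MS/MS; A-to-B Papp computed from transport slope, membrane area and UV-HPLC-measured donor concentration.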

Where only a bound is given, the exact number is not on record here.

T1 sequence (P06756 31-889 limits assumed): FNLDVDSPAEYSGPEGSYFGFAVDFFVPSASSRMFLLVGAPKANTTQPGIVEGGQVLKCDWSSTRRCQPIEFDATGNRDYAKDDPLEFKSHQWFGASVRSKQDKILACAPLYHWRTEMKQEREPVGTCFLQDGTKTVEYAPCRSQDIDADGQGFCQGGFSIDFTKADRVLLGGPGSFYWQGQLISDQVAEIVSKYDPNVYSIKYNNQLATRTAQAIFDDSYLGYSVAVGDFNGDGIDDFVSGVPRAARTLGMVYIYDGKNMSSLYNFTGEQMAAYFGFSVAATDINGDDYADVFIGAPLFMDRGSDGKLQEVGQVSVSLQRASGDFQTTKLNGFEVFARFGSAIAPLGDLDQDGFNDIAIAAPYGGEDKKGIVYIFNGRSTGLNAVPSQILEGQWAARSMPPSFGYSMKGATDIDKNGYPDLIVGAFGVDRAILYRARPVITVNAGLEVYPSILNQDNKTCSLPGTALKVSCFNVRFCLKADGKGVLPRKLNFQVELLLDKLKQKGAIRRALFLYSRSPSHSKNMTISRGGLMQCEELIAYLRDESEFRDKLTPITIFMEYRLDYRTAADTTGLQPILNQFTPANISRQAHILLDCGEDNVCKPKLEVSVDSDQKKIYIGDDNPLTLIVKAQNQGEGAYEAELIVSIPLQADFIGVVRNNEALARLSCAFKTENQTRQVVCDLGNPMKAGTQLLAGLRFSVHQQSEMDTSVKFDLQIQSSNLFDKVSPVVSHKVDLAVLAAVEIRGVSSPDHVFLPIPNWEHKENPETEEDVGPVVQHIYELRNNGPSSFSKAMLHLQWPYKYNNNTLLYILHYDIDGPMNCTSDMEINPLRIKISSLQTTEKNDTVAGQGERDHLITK
T1 sequence (P06756 891-1048 limits assumed): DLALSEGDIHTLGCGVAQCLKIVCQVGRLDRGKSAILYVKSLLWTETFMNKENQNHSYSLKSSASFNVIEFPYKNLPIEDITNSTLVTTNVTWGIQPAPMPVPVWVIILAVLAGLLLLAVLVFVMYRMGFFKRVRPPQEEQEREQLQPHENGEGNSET
T1 sequence (G3HZ55 21-798): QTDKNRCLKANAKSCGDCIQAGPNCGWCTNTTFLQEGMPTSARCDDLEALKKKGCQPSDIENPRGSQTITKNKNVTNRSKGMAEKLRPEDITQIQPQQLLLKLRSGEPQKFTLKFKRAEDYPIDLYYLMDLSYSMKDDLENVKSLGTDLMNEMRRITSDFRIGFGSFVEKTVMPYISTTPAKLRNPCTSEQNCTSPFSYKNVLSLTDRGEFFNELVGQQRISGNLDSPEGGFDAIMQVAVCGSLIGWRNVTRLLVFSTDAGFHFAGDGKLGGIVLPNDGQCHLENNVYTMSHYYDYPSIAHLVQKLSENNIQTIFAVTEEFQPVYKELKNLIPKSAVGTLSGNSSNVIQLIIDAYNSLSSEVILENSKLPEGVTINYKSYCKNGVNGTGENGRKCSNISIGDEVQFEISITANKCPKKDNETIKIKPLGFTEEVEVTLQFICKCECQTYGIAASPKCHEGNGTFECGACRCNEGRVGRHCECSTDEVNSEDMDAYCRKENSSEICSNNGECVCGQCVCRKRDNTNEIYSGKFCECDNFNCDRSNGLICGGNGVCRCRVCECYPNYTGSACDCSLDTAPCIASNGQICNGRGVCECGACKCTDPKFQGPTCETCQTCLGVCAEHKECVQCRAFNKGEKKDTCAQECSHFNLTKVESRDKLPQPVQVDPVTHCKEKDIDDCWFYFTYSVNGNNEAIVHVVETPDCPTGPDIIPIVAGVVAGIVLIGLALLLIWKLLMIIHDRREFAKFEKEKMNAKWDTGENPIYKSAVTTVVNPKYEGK

As for `O=C(O)C[C@H](NC(=O)CNC(=O)c1cc(NC2=NCC(F)CN2)c2cn[nH]c2c1)c1cccc(N2CCOCC2)c1` (stereo partly drawn) [Example 45-(b), (3S)-3-(2-(4-((5-fluoro-1,4,5,6-tetrahydropyrimidin-2-yl)amino)-1H-indazole-6-carboxamido)acetamido)-3-(3-morpholinophenyl)propanoic acid], the IC50 on αvβ1 was under 3 nM. In addition, the Papp A→B at 90 min, 10 μM in data set [1] is 0.5 to 1 ×10⁻⁶ cm/s.
On to `O=C(O)C[C@H](NC(=O)CNC(=O)c1cc(NC2=NCC(F)CN2)c2cn[nH]c2c1)c1ccc(OC(F)F)cc1` (stereo partly drawn) [Example 46-(b), (3S)-3-(4-(difluoromethoxy)phenyl)-3-(2-(4-((5-fluoro-1,4,5,6-tetrahydropyrimidin-2-yl)amino)-1H-indazole-6-carboxamido)acetamido)propanoic acid], for which the IC50 on αvβ1 is 3 to 10 nM. Besides, the Papp A→B at 90 min, 10 μM in data set [1] is over 1 ×10⁻⁶ cm/s.
Consider `O=C(O)C[C@H](NC(=O)CNC(=O)c1cc(NC2=NCC(F)CN2)c2cn[nH]c2c1)c1ccc(C(F)(F)F)cc1` (stereo partly drawn) [Example 47-(b), (3S)-3-(2-(4-((5-fluoro-1,4,5,6-tetrahydropyrimidin-2-yl)amino)-1H-indazole-6-carboxamido)acetamido)-3-(4-(trifluoromethyl)phenyl)propanoic acid], for which the IC50 at αvβ1 was in the range of 3 to 10 nM. In addition, the Papp A→B at 90 min, 10 μM in data set [1] was over 1 ×10⁻⁶ cm/s.
Take `O=C(O)C[C@H](NC(=O)CNC(=O)c1cc(NC2=NCC(F)CN2)c2c(F)n[nH]c2c1)c1cc(Cl)cc(C(F)(F)F)c1` (stereo partly drawn) [Example 48-(b), (3S)-3-(3-chloro-5-(trifluoromethyl)phenyl)-3-(2-(3-fluoro-4-((5-fluoro-1,4,5,6-tetrahydropyrimidin-2-yl)amino)-1H-indazole-6-carboxamido)acetamido) propanoic acid]: at αvβ1, the IC50 lay within 3 to 10 nM. For the same compound, in data set [1], the Papp A→B at 90 min, 10 μM was over 1 ×10⁻⁶ cm/s.
On to `O=C(O)C[C@H](NC(=O)CNC(=O)c1cc(NC2=NCC(F)CN2)c2c(Cl)n[nH]c2c1)c1cc(Cl)cc(C(F)(F)F)c1` (stereo partly drawn) [Example 49-(b), (3S)-3-(2-(3-chloro-4-((5-fluoro-1,4,5,6-tetrahydropyrimidin-2-yl)amino)-1H-indazole-6-carboxamido)acetamido)-3-(3-chloro-5-(trifluoromethyl)phenyl)propanoic acid], for which the IC50 at αvβ1 was under 3 nM. In data set [1], this compound displayed a Papp A→B at 90 min, 10 μM of 0.5 to 1 ×10⁻⁶ cm/s.
As to `O=C(O)C[C@H](NC(=O)CNC(=O)c1cc(NC2=NCC(O)CN2)c2cn[nH]c2c1)c1cc(Cl)cc(C(F)(F)F)c1` (stereo partly drawn) [Example 50-(b), (3S)-3-(3-chloro-5-(trifluoromethyl)phenyl)-3-(2-(4-((5-hydroxy-1,4,5,6-tetrahydropyrimidin-2-yl)amino)-1H-indazole-6-carboxamido)acetamido)propanoic acid], the IC50 on αvβ1 was 10 to 30 nM. Besides, the Papp A→B at 90 min, 10 μM in data set [1] was over 1 ×10⁻⁶ cm/s.
Regarding `O=C(O)C[C@H](NC(=O)CNC(=O)c1cc(NC2=NCCCN2)c2cn[nH]c2c1)c1cc(Cl)cc(C(F)(F)F)c1` [Example 51-(b), (S)-3-(3-chloro-5-(trifluoromethyl)phenyl)-3-(2-(4-((1,4,5,6-tetrahydropyrimidin-2-yl)amino)-1H-indazole-6-carboxamido)acetamido)propanoic acid], the IC50 on αvβ1 lay in the range of 30 to 100 nM. This compound also had an apical-to-basolateral permeability (Papp A→B) at 90 min, 10 μM in data set [1] of over 1 ×10⁻⁶ cm/s.
Take `O=C(O)C[C@H](NC(=O)CNC(=O)c1cc(NC2=NCC(F)CN2)cc2[nH]ncc12)c1cc(Cl)cc(C(F)(F)F)c1` (stereo partly drawn) [Example 52-(b), (3S)-3-(3-chloro-5-(trifluoromethyl)phenyl)-3-(2-(6-((5-fluoro-1,4,5,6-tetrahydropyrimidin-2-yl)amino)-1H-indazole-4-carboxamido)acetamido)propanoic acid]: the IC50 at αvβ1 is under 3 nM. This compound yielded a Papp A→B at 90 min, 10 μM in data set [1] of 0.1 to 0.5 ×10⁻⁶ cm/s.
On to `O=C(O)C[C@H](NC(=O)CNC(=O)c1cc(NC2=NCC(F)CN2)cc2[nH]ncc12)c1cc(Br)cc(C(F)(F)F)c1` (stereo partly drawn) [Example 53-(b), (3S)-3-(3-bromo-5-(trifluoromethyl)phenyl)-3-(2-(6-((5-fluoro-1,4,5,6-tetrahydropyrimidin-2-yl)amino)-1H-indazole-4-carboxamido)acetamido)propanoic acid], for which the IC50 at αvβ1 was under 3 nM. In data set [1], this compound gave a Papp A→B at 90 min, 10 μM of 0.1 to 0.5 ×10⁻⁶ cm/s.
In the same order, the values of `O=C(O)C[C@H](NC(=O)CNC(=O)c1cc(NC2=NCC(F)CN2)cc2[nH]ncc12)c1cc(I)cc(C(F)(F)F)c1` (stereo partly drawn) [Example 54-(b), (3S)-3-(2-(6-((5-fluoro-1,4,5,6-tetrahydropyrimidin-2-yl)amino)-1H-indazole-4-carboxamido)acetamido)-3-(3-iodo-5-(trifluoromethyl)phenyl)propanoic acid] are under 3 nM and 0.1 to 0.5 ×10⁻⁶ cm/s.
On to `O=C(O)C[C@H](NC(=O)CNC(=O)c1cc(NC2=NCC(F)CN2)cc2[nH]ncc12)c1ccc(F)c(C(F)(F)F)c1` (stereo partly drawn) [Example 55-(b), (3S)-3-(2-(6-((5-fluoro-1,4,5,6-tetrahydropyrimidin-2-yl)amino)-1H-indazole-4-carboxamido)acetamido)-3-(4-fluoro-3-(trifluoromethyl)phenyl)propanoic acid], for which the IC50 at αvβ1 was under 3 nM. This compound also registered a Papp A→B at 90 min, 10 μM in data set [1] of 0.1 to 0.5 ×10⁻⁶ cm/s.
Take `O=C(O)C[C@H](NC(=O)CNC(=O)c1cc(NC2=NCC(F)CN2)cc2[nH]ncc12)c1cccc(C(F)(F)F)c1` (stereo partly drawn) [Example 56-(b), (3S)-3-(2-(6-((5-fluoro-1,4,5,6-tetrahydropyrimidin-2-yl)amino)-1H-indazole-4-carboxamido)acetamido)-3-(3-(trifluoromethyl)phenyl)propanoic acid]: the IC50 on αvβ1 fell in the range of 3 to 10 nM. The same compound gave a Papp A→B at 90 min, 10 μM in data set [1] of 0.1 to 0.5 ×10⁻⁶ cm/s.

(Values after US20230192661A1, “1, 4, 5, 6-TETRAHYDROPYRIMIDINE-2-AMINE DERIVATIVE” (UBE Corporation, priority 2020, published 2023).)
